Data published in patent US8933235B2, “Pyridinedione carboxamide inhibitors of endothelial lipase” (Bristol-Myers Squibb Company, priority 2011, dated 2015).

These compounds were tested against T1, endothelial lipase (EL) (Homo sapiens, UniProt Q9Y5X9) (assay: Endothelial lipase (EL) enzymatic assay with fluorescent substrate A10070 in DMPG vesicles). Conditions: conditioned media from HT-1080 cells overexpressing endogenous EL; 20 min preincubation at 37° C.; read-out: HLE_EL_CRC IC50.
T1 construct: Conditioned media obtained from HT-1080 cells, which were transformed by RAGE technology (Athersys) to overexpress endogenous EL; endogenous in cells; conditioned medium used as the enzyme source
T1 sequence (Q9Y5X9 21-500): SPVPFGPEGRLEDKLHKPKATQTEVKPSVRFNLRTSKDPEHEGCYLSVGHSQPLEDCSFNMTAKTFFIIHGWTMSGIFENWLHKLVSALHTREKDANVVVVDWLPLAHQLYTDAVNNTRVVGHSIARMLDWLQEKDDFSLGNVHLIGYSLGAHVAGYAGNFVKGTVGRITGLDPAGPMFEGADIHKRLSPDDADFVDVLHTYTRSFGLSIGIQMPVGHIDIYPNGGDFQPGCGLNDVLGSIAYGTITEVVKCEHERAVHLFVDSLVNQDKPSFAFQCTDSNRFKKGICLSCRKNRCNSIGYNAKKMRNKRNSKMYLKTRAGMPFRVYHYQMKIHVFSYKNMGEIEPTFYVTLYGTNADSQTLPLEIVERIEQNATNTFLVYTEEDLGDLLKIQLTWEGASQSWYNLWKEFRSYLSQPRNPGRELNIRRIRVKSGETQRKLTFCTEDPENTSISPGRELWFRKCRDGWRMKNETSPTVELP
Assay type: biochemical
Experimental: Endothelial lipase activity was measured using a fluorescent substrate, A10070, (Invitrogen, CA) doped into an artificial vesicle containing DMPG (Avanti Polar Lipids) as the excipient. Vesicles were prepared by combining 285 uL of 1 mM DMPG in a 1:1 mixture of MeOH and CHCl3 with 15 uL of 1 mM A10070 in a 1:1 mixture of MeOH and CHCl3. The mixture was dried under nitrogen and resuspended in 150 uL of 50 mM HEPES pH 8.0 buffer containing 100 mM NaCl and 0.2 mM EDTA. The sample was allowed to sit at rt for 15 min and then was sonicated 3×4 mins on ice with a Branson Sonicator using duty cycle 1. This preparation provides vesicles with a mole fraction of 0.05 for the FRET substrate.
The enzymatic assay was measured using white, opaque 96-well half area plates. Each well contained 60 uL of assay buffer (50 mM HEPES pH 8.0, 50 mM NaCl and 1 mM CaCl2) and 2 ul of a DMSO solution containing compound of interest. Conditioned media obtained from HT-1080 cells, which were transformed by RAGE technology (Athersys) to overexpress endogenous EL, was added and the reaction was allowed to incubate for 20 min at 37° C. with gentle agitation. The reaction was started by the addition of 20 uL of a 1:4 dilution of vesicles. The final total reaction volume was 100 uL. The reaction rates were measured on a Gemini plate reader with an excitation wavelength of 488 nm and a emission of 530 nm. Readings were taken every 20 seconds for 10 min with agitation between each reading. The slope of the linear portion of the readout was used to calculate the rate of the reaction.
Work on `COc1ccc(CNc2c(C(=O)NCCCc3ccc(Cl)c(Cl)c3)ccn(C)c2=O)cc1` [Example 186, (3-(3,4-dichlorophenyl)propyl)-3-(4-methoxybenzylamino)-1-methyl-2-oxo-1,2-dihydropyridine-4-carboxamide] yielded an IC50 of 172 nM. `Cn1c(-c2cc(F)cc(C(F)(F)F)c2)cc(C(=O)NCCc2cccc(C(F)(F)F)c2)c(O)c1=O` [Example 56, 6-(3-fluoro-5-(trifluoromethyl)phenyl)-3-hydroxy-1-methyl-2-oxo-N-(3-(trifluoromethyl)phenethyl)-1,2-dihydropyridine-4-carboxamide] showed an IC50 of 216 nM. In the case of `CC(CNC(=O)c1ccn(C)c(=O)c1O)Oc1ccc(F)cc1` (stereo not shown) [Example 137, N-(2-(4-fluorophenoxy)propyl)-3-hydroxy-1-methyl-2-oxo-1,2-dihydropyridine-4-carboxamide], the IC50 is reported as 1660 nM. `Cn1c(-c2cc(F)cc(C(F)(F)F)c2)cc(C(=O)NCCCOc2ccc(Cl)c(Cl)c2)c(O)c1=O` [Example 77, N-(3-(3,4-dichlorophenoxy)propyl)-6-(3-fluoro-5-(trifluoromethyl)phenyl)-3-hydroxy-1-methyl-2-oxo-1,2-dihydropyridine-4-carboxamide] gave an IC50 of less than 10 nM. Work on `COC(=O)c1cccc(OCCCNC(=O)c2cc(-c3cc(F)cc(C(F)(F)F)c3)n(C)c(=O)c2O)c1` [Example 71, methyl 3-(3-(6-(3-fluoro-5-(trifluoromethyl)phenyl)-3-hydroxy-1-methyl-2-oxo-1,2-dihydropyridine-4-carboxamido)propoxy)benzoate] yielded an IC50 of less than 10 nM. Work on `Cn1c(-c2cc(F)cc(C(F)(F)F)c2)cc(C(=O)NCCCOc2ccccc2Cl)c(O)c1=O` [Example 48, N-(3-(2-chlorophenoxy)propyl)-6-(3-fluoro-5-(trifluoromethyl)phenyl)-3-hydroxy-1-methyl-2-oxo-1,2-dihydropyridine-4-carboxamide] yielded an IC50 of less than 10 nM. `Cn1ccc(C(=O)NC(CCc2ccc(Cl)c(Cl)c2)C2CC2)c(O)c1=O` (single isomer, unassigned) [Example 119, N-(1-cyclopropyl-3-(3,4-dichlorophenyl)propyl)-3-hydroxy-1-methyl-2-oxo-1,2-dihydropyridine-4-carboxamide] showed an IC50 of 1620 nM. `CC(C)OCCNc1c(C(=O)NCCCc2ccc(Cl)c(Cl)c2)ccn(C)c1=O` [Example 189, N-(3-(3,4-dichlorophenyl)propyl)-3-(2-isopropoxyethylamino)-1-methyl-2-oxo-1,2-dihydropyridine-4-carboxamide] showed an IC50 of 210 nM. Work on `COc1ccc(CCNC(=O)c2ccn(C)c(=O)c2O)cc1` [Example 128, 3-hydroxy-N-(4-methoxyphenethyl)-1-methyl-2-oxo-1,2-dihydropyridine-4-carboxamide] yielded an IC50 of 6620 nM. Compound `Cn1ccc(C(=O)NCCc2ccc(C(F)(F)F)cc2)c(O)c1=O` [Example 136, 3-hydroxy-1-methyl-2-oxo-N-(4-(trifluoromethyl)phenethyl)-1,2-dihydropyridine-4-carboxamide] has an IC50 of 2200 nM. `Cn1c(-c2ccc(Cl)c(C(F)(F)F)c2)cc(C(=O)NCCCc2ccc(Cl)c(Cl)c2)c(O)c1=O` [Example 8, 6-(4-chloro-3-(trifluoromethyl)phenyl)-N-(3-(3,4-dichlorophenyl)propyl)-3-hydroxy-1-methyl-2-oxo-1,2-dihydropyridine-4-carboxamide] was tested, and the IC50 was less than 10 nM. With `Cn1c(C(F)(F)F)cc(C(=O)NCCCOc2ccccc2Cl)c(O)c1=O` [Example 88, N-(3-(2-chlorophenoxy)propyl)-3-hydroxy-1-methyl-2-oxo-6-(trifluoromethyl)-1,2-dihydropyridine-4-carboxamide] the IC50 was less than 10 nM. `Cn1ccc(C(=O)NC(CCc2ccc(Cl)c(Cl)c2)c2ccccc2)c(O)c1=O` (single isomer, unassigned) [Example 120, N-(3-(3,4-dichlorophenyl)-1-phenylpropyl)-3-hydroxy-1-methyl-2-oxo-1,2-dihydropyridine-4-carboxamide] was tested, and the IC50 was 167 nM. `Cn1c(-c2cc(F)cc(C(F)(F)F)c2)cc(C(=O)NCCCOc2ccc(F)cc2)c(O)c1=O` [Example 64, 6-(3-fluoro-5-(trifluoromethyl)phenyl)-N-(3-(4-fluorophenoxy)propyl)-3-hydroxy-1-methyl-2-oxo-1,2-dihydropyridine-4-carboxamide] gave an IC50 of less than 10 nM. For `COC(=O)c1cccc(OCCCNC(=O)c2ccn(C)c(=O)c2O)c1` [Example 198, methyl 3-(3-(3-hydroxy-1-methyl-2-oxo-1,2-dihydropyridine-4-carboxamido)propoxy)benzoate], the IC50 was 182 nM. `CC(C)CNc1c(C(=O)NCCCc2ccc(Cl)c(Cl)c2)ccn(C)c1=O` [Example 188, N-(3-(3,4-dichlorophenyl)propyl)-3-(isobutylamino)-1-methyl-2-oxo-1,2-dihydropyridine-4-carboxamide] was tested, and the IC50 was 200 nM. `Cn1c(-c2cccc(C(=O)O)c2)cc(C(=O)NCCCc2ccc(Cl)c(Cl)c2)c(O)c1=O` [Example 45, 3-(4-(3-(3,4-dichlorophenyl)propylcarbamoyl)-5-hydroxy-1-methyl-6-oxo-1,6-dihydropyridin-2-yl)benzoic acid] gave an IC50 of 199 nM. `Cn1c(C(F)(F)F)cc(C(=O)NCCCOc2ccccc2C(F)(F)F)c(O)c1=O` [Example 89, 3-hydroxy-1-methyl-2-oxo-6-(trifluoromethyl)-N-(3-(2-(trifluoromethyl)phenoxy)propyl)-1,2-dihydropyridine-4-carboxamide] was tested, and the IC50 was less than 10 nM. For `Cn1ccc(C(=O)NCCCOc2cccc(F)c2)c(O)c1=O` [Example 142, N-(3-(3-fluorophenoxy)propyl)-3-hydroxy-1-methyl-2-oxo-1,2-dihydropyridine-4-carboxamide], the IC50 was 216 nM. `Cn1c(-c2cc(F)cc(F)c2)cc(C(=O)NCCCc2ccc(Cl)c(Cl)c2)c(O)c1=O` [Example 19, N-(3-(3,4-dichlorophenyl)propyl)-6-(3,5-difluorophenyl)-3-hydroxy-1-methyl-2-oxo-1,2-dihydropyridine-4-carboxamide] was tested, and the IC50 was less than 10 nM. Work on `CC(CCc1ccccc1)NC(=O)c1ccn(C)c(=O)c1O` (stereo not shown) [Example 126, 3-hydroxy-1-methyl-2-oxo-N-(4-phenylbutan-2-yl)-1,2-dihydropyridine-4-carboxamide] yielded an IC50 of 2460 nM. `COc1ccc(CCNC(=O)c2cc(-c3cc(F)cc(C(F)(F)F)c3)n(C)c(=O)c2O)cc1` [Example 51, 6-(3-fluoro-5-(trifluoromethyl)phenyl)-3-hydroxy-N-(4-methoxyphenethyl)-1-methyl-2-oxo-1,2-dihydropyridine-4-carboxamide] showed an IC50 of 178 nM. In the case of `Cn1ccc(C(=O)NC(CCc2ccc(Cl)c(Cl)c2)C2CC2)c(O)c1=O` (single isomer, unassigned) [Example 118, N-(1-cyclopropyl-3-(3,4-dichlorophenyl)propyl)-3-hydroxy-1-methyl-2-oxo-1,2-dihydropyridine-4-carboxamide], the IC50 is reported as 2700 nM. Work on `Cn1c(-c2cc(F)cc(C(F)(F)F)c2)cc(C(=O)NCCCc2ccc(Cl)c(Cl)c2)c(O)c1=O` [Example 7, N-(3-(3,4-dichlorophenyl)propyl)-6-(3-fluoro-5-(trifluoromethyl)phenyl)-3-hydroxy-1-methyl-2-oxo-1,2-dihydropyridine-4-carboxamide] yielded an IC50 of less than 10 nM. With `CC(C)C(CCc1ccc(Cl)c(Cl)c1)NC(=O)c1ccn(C)c(=O)c1O` (single isomer, unassigned) [Example 114, N-(1-(3,4-dichlorophenyl)-4-methylpentan-3-yl)-3-hydroxy-1-methyl-2-oxo-1,2-dihydropyridine-4-carboxamide] the IC50 was 6860 nM. `Cn1ccc(C(=O)NCc2ccc(C(F)(F)F)cc2)c(O)c1=O` [Example 129, 3-hydroxy-1-methyl-2-oxo-N-(4-(trifluoromethyl)benzyl)-1,2-dihydropyridine-4-carboxamide] showed an IC50 of 3560 nM. In the case of `COc1c(C(=O)NCCCc2ccc(Cl)c(Cl)c2)ccn(C)c1=O` [Example 113, N-(3-(3,4-dichlorophenyl)propyl)-3-methoxy-1-methyl-2-oxo-1,2-dihydropyridine-4-carboxamide], the IC50 is reported as 5820 nM. Work on `Cn1ccc(C(=O)NCCc2ccccc2Cl)c(O)c1=O` [Example 127, N-(2-chlorophenethyl)-3-hydroxy-1-methyl-2-oxo-1,2-dihydropyridine-4-carboxamide] yielded an IC50 of 8660 nM.
